From patent US7880002B2, “Substituted piperazinyl-pyrrolidine compounds useful as chemokine receptor antagonists” (Millennium Pharmaceuticals, Inc., priority 2004, dated 2011)

What follows are compounds tested against T1, CCR1 (Homo sapiens, UniProt P32246) (assay: CCR1 inhibition (THP-1 FLIPR assay / THP-1 whole cell radioligand binding assay; the patent does not say which gave the values)). Settings: threshold list, less than 100 nm; compounds of Table 1; read-out: inhibitory activity.
T1 construct: a monocytic derived cell line that endogenously expresses CCR1; host or cells: THP-1 cells
T1 sequence (P32246 1-355): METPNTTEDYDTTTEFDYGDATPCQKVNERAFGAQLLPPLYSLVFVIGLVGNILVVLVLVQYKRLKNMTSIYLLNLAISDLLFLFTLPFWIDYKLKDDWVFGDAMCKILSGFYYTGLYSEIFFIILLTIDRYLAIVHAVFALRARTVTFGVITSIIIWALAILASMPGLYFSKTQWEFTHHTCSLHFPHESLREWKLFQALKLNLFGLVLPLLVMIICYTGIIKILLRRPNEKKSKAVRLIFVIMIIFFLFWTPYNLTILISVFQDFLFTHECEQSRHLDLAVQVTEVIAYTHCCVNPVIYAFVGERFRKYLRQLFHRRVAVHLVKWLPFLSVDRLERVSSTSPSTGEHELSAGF
Assay type: cell-based
Method: The primary screening assay is a FLIPR® (Fluorometric Imaging Plate Reader, available from Molecular Devices Corporation, Sunnyvale, Calif.) assay using THP-1 cells (ATCC, Catalog No. TIB 202), a monocytic derived cell line that endogenously expresses CCR1.
The cells were resuspended at 1×10^6 cells/ml in dye loading media (growth media (RPMI+10% FBS (Fetal Bovine serum)+5.5×10^−5M 2-mercaptoethanol)+10 mM HEPES (N-2-hydroxyethylpiperazine-N′-2-ethane-sulfonic acid)+2.5 mM probenecid+fluo-3 (1:250)). The cells were incubated for 1 hour at 37° C. and then washed in FLIPR wash buffer (100 mL 10× HBSS (Hanks Buffered Saline Solution) (w/Ca++/Mg++)+20 mL 1M HEPES+1 g BSA+10 mL 250 mM probenecid+water (to make 1 L)) and plated at 50,000 cells/well in black/clear 384 well plates. The plates were transferred to FLIPR where the ability of different concentrations of compounds to inhibit RANTES induced calcium flux was assessed. Inhibition of the CCR1 response was reflected by a decrease of the fluorescence signal relative to the positive controls (RANTES alone).
THP-1 Whole Cell Radioligand Binding Assay
The cells were washed with PBS (phosphate buffered saline) and resuspended in binding buffer (10 mM HEPES pH 7.2, 1× HBSS (w/Ca^2+, Mg^2+) 0.5% BSA, 0.02% Na-azide) at 4×10^6 cells/ml (for 200, 000 cells/well). Cells were incubated with 0.1 to 0.2 nM [^125I]-labeled MIP-1α with or without unlabeled competitor (MIP-1α) or various concentrations of compounds for 60 minutes at room temperature. The assay was terminated by vacuum filtration through glass fiber filters (GF/B, Packard) which were presoaked in 0.3% polyethyleneimine. The filters were washed with wash buffer (10 mM HEPES, pH 7.2, 1 mM CaCl2, 5 mM MgCl2 0.5M NaCl), dried and the amount of bound radioactivity was determined by scintillation counting.

IC50, < 100 nM:
O=C(c1ccc(Cl)cc1)N1CCN([C@@H]2CN(c3nc(C(F)(F)F)nc4cnccc34)C[C@H]2O)CC1 (racemic) [Example 137, 4-[4-(4-chlorobenzoyl)piperazin-1-yl]-1-[2-(trifluoromethyl)pyrido[3,4-d]pyrimidin-4-yl]pyrrolidin-3-ol]
O=C(c1ccc(Cl)cc1)N1CCN([C@@H]2CN(c3ncnc4cc(Cl)cnc34)C[C@H]2O)CC1 (racemic) [Example 162, 4-[4-(4-chlorobenzoyl)piperazin-1-yl]-1-(7-chloropyrido[3,2-d]pyrimidin-4-yl)pyrrolidin-3-ol]
O=C(c1ccc(Cl)cc1)N1CCN([C@H]2CN(c3ncnc4cnccc34)C[C@@H]2O)CC1 (racemic) [Example 182, 4-[4-(4-chlorobenzoyl)piperazin-1-yl]-1-pyrido[3,4-d]pyrimidin-4-ylpyrrolidin-3-ol]
COc1cc2c(N3C[C@H](O)[C@@H](N4CCN(C(=O)c5ccc(Cl)cc5)CC4)C3)nc(C(F)(F)F)nc2cn1 (racemic) [Example 183, 4-[4-(4-chlorobenzoyl)piperazin-1-yl]-1-[6-methoxy-2-(trifluoromethyl)pyrido[3,4-d]pyrimidin-4-yl]pyrrolidin-3-ol]
COc1ccc2nc(C(F)(F)F)nc(N3C[C@@H](O)[C@H](N4CCN(C(=O)c5ccc(Cl)cc5)CC4)C3)c2n1 (racemic) [Example 200, 4-[4-(4-chlorobenzoyl)piperazin-1-yl]-1-[6-methoxy-2-(trifluoromethyl)pyrido[3,2-d]pyrimidin-4-yl]pyrrolidin-3-ol]
O=C(c1ccc(Cl)cc1)N1CCN([C@@H]2CN(c3ccnc4cc(Cl)ccc34)C[C@H]2O)CC1 (stereo in doubt) [Example 1, 4-[4-(4-chlorobenzoyl)piperazin-1-yl]-1-(7-chloroquinolin-4-yl)pyrrolidin-3-ol]
O=C(c1ccc(Cl)cc1)N1CCN([C@@H]2CN(c3nccc(C(F)(F)F)n3)C[C@H]2O)CC1 (stereo in doubt) [Example 3, 4-[4-(4-chlorobenzoyl)piperazin-1-yl]-1-[4-(trifluoromethyl)pyrimidin-2-yl]pyrrolidin-3-ol]
O=C(c1ccc(Cl)cc1)N1CCN([C@@H]2CN(c3ncnc4cc(Cl)ccc34)C[C@H]2O)CC1 (stereo in doubt) [Example 23, 4-[4-(4-chlorobenzoyl)piperazin-1-yl]-1-(7-chloroquinazolin-4-yl)pyrrolidin-3-ol]
O=C(c1ccc(Cl)cc1)N1CCN([C@H]2CN(c3cc(C(F)(F)F)nc4c(C(F)(F)F)cccc34)C[C@@H]2O)CC1 (stereo in doubt) [Example 26, 1-[2,8-bis(trifluoromethyl)quinolin-4-yl]-4-[4-(4-chlorobenzoyl)piperazin-1-yl]pyrrolidin-3-ol]
O[C@H]1CN(c2ncnc3cc(Cl)ccc23)C[C@@H]1N1CCC(Oc2ccc(Cl)cc2)CC1 (stereo in doubt) [Example 80, 4-[4-(4-chlorophenoxy)piperidin-1-yl]-1-(7-chloroquinazolin-4-yl)pyrrolidin-3-ol]
O=C(c1ccc(Cl)cc1)N1CCN([C@@H]2CN(c3ncnc4ccc(Cl)cc34)C[C@H]2O)CC1 (stereo in doubt) [Example 81, 4-[4-(4-chlorobenzoyl)piperazin-1-yl]-1-(6-chloroquinazolin-4-yl)pyrrolidin-3-ol]
O=C(c1ccc(Cl)cc1)N1CCN([C@H]2CN(c3ccc4cccc(Cl)c4n3)C[C@@H]2O)CC1 (stereo in doubt) [Example 85, 4-[4-(4-chlorobenzoyl)piperazin-1-yl]-1-(8-chloroquinolin-2-yl)pyrrolidin-3-ol]
O=C(c1ccc(Cl)cc1)N1CCN([C@@H]2CN(c3ncnc4cc(F)ccc34)C[C@H]2O)CC1 (stereo in doubt) [Example 86, 4-[4-(4-chlorobenzoyl)piperazin-1-yl]-1-(7-fluoroquinazolin-4-yl)pyrrolidin-3-ol]
O[C@H]1CN(c2ncnc3cc(Cl)ccc23)C[C@@H]1N1CCN(Cc2ccc(Cl)cc2)CC1 (stereo in doubt) [Example 87, 4-[4-(4-chlorobenzyl)piperazin-1-yl]-1-(7-chloroquinazolin-4-yl)pyrrolidin-3-ol]
O=C(c1ccc(Cl)cc1)N1CCN([C@@H]2CN(c3ncnc4cc(C(F)(F)F)ccc34)C[C@H]2O)CC1 (stereo in doubt) [Example 93, 4-[4-(4-chlorobenzoyl)piperazin-1-yl]-1-[7-(trifluoromethyl)quinazolin-4-yl]pyrrolidin-3-ol]
O=C(c1ccc(Cl)cc1)N1CCN([C@@H]2CN(c3nc(C(F)(F)F)nc4ccccc34)C[C@H]2O)CC1 (stereo in doubt) [Example 94, 4-[4-(4-chlorobenzoyl)piperazin-1-yl]-1-[2-(trifluoromethyl)quinazolin-4-yl]pyrrolidin-3-ol]
O[C@H]1CN(c2nc(C(F)(F)F)nc3ccccc23)C[C@@H]1N1CCN(Cc2ccc(Cl)cc2)CC1 (stereo in doubt) [Example 95, 4-[4-(4-chlorobenzyl)piperazin-1-yl]-1-[2-(trifluoromethyl)quinazolin-4-yl]pyrrolidin-3-ol]
O[C@H]1CN(c2ncnc3cc(C(F)(F)F)ccc23)C[C@@H]1N1CCN(Cc2ccc(Cl)cc2)CC1 (stereo in doubt) [Example 97, 4-[4-(4-chlorobenzyl)piperazin-1-yl]-1-[7-(trifluoromethyl)quinazolin-4-yl]pyrrolidin-3-ol]
O=C(c1ccc(Cl)cc1)N1CCN([C@@H]2CN(c3ncnc4cc(F)c(F)cc34)C[C@H]2O)CC1 (stereo in doubt) [Example 102, 4-[4-(4-chlorobenzoyl)piperazin-1-yl]-1-(6,7-difluoroquinazolin-4-yl)pyrrolidin-3-ol]
O=C(c1ccc(Cl)cc1)N1CCN([C@@H]2CN(c3nc(Nc4ccc(Cl)cc4)cc(C(F)(F)F)n3)C[C@H]2O)CC1 (stereo in doubt) [Example 106, 4-[4-(4-chlorobenzoyl)piperazin-1-yl]-1-[4-[(4-chlorophenyl)amino]-6-(trifluoromethyl)pyrimidin-2-yl]pyrrolidin-3-ol]
Cc1cc(C(F)(F)F)nc(N2C[C@@H](O)[C@H](N3CCN(C(=O)c4ccc(Cl)cc4)CC3)C2)n1 (stereo in doubt) [Example 107, 4-[4-(4-chlorobenzoyl)piperazin-1-yl]-1-[4-methyl-6-(trifluoromethyl)pyrimidin-2-yl]pyrrolidin-3-ol]
Cc1cc(C(F)(F)F)nc(N2C[C@@H](O)[C@H](N3CCN(Cc4ccc(Cl)cc4)CC3)C2)n1 (stereo in doubt) [Example 108, 4-[4-(4-chlorobenzyl)piperazin-1-yl]-1-[4-methyl-6-(trifluoromethyl)pyrimidin-2-yl]pyrrolidin-3-ol]
O=C(c1ccc(Cl)cc1)N1CCN([C@@H]2CN(c3nc(C(F)(F)F)cc(C(F)(F)F)n3)C[C@H]2O)CC1 (stereo in doubt) [Example 109, 1-[4,6-bis(trifluoromethyl)pyrimidin-2-yl]-4-[4-(4-chlorobenzoyl)piperazin-1-yl]pyrrolidin-3-ol]
O=C(c1ccc(Cl)cc1)N1CCN([C@@H]2CN(c3nc(C(F)(F)F)nc4cc(C(F)(F)F)ccc34)C[C@H]2O)CC1 (stereo in doubt) [Example 111, 1-[2,7-bis(trifluoromethyl)quinazolin-4-yl]-4-[4-(4-chlorobenzoyl)piperazin-1-yl]pyrrolidin-3-ol]
O=C(c1ccc(Cl)cc1)N1CCN([C@@H]2CN(c3cc(C(F)(F)F)cc(C(F)(F)F)c3)C[C@H]2O)CC1 (stereo in doubt) [Example 113, 1-[3,5-bis(trifluoromethyl)phenyl]-4-[4-(4-chlorobenzoyl)piperazin-1-yl]pyrrolidin-3-ol]
O[C@@H]1CN(c2ncnc3cc(Cl)ccc23)C[C@H]1N1CCN(Cc2ccc(F)cc2)CC1 (stereo in doubt) [Example 115, 1-(7-chloroquinazolin-4-yl)-4-[4-(4-fluorobenzyl)piperazin-1-yl]pyrrolidin-3-ol]
